# Experimental data as given in patent US20110217293A1, “Uses of morelloflavone” (priority 2008, published 2011).
# “Also recorded” adds a separate entry of the source.
# Columns and labels:
# [1] = test system: vascular smooth muscle cells; assay: BrdU incorporation assay; format: cell-based, mouse; set-up: effect on BrdU labelling indices: dose or concentration left out as unconfirmed
# Procedure: Mouse vascular smooth muscle cells, isolated as described (13), were maintained in 231 media (Cascade Biologics, Portland, Oreg.) supplemented with SMGS (Cascade Biologics) in a humidified incubator at 37° C. with 5% CO2. Cells from passages 4-9 were used in all experiments. All experiments were performed in subconfluent, unsynchronized cells growing in SMGS except for the lamellipodium formation assay.
# Vascular smooth muscle cells were seeded at 2×10^4 cells per well in 96-well culture plates and incubated overnight. The next day, cells were found approximately 60-70% confluent. Cells were treated with various concentrations of morelloflavone ([…]) for 2 hrs and then pulsed with BrdU at 1 mM for 8 hrs. The amount of BrdU incorporated into the cells was quantified by BrdU Cell Proliferation Assay kit (Calbiochem, San Diego, Calif.), according to manufacturer's instructions. Briefly, the cells were fixed and permeabilized on tissue culture plastic, and incubated with anti-BrdU monoclonal antibody. After extensive washing, bound antibodies were visualized by goat anti-mouse IgG conjugated to horseradish peroxidase and tetra-methylbenzidine substrate and quantified by spectrophotometer at 450 nm. The protein content was determined using the Bradford assay (Bio-Rad, Hercules, Calif.).
# [2] = test system: Ldlr−/−Apobec1−/− mice; assay: Analysis of atherosclerotic lesions (en-face and cross-sectional); format: in vivo, mouse; conditions: 8 months
# Procedure: As a model of in vivo athereosclerosis, mice that lack the low density lipoprotein (LDL) receptor and Apobec 1 genes (Ldlr^−/−Apobec1^−/−) were used. The Ldlr^−/−Apobec1^−/− mice were generated by crossbreeding Ldlr^−/− mice (Jackson Lab, Bar Harbor, Me.) and Apobec1^−/− mice (Dr. Lawrence Chan, Baylor College of Medicine). Genotyping was performed in standard PCR-based methods, using following primer sets: For Apobec1, 5′-TGAGTGAGTGGTGGTGGTAAAG-3′ (SEQ ID NO: 1) and 5′-CGAAATTCCTCCAGCAGTAAC-3′ (SEQ ID NO: 2) where […] and […] mice would have 475 by amplicon while Apobec1^−/− have none. For Ldlr, 5′-ACCCCAAGACGTGCTCCCAGGATGA-3′ (SEQ ID NO: 3), 5′-CGCAGTGCTCCTCATCTGACTTGT-3′ (SEQ ID NO: 4), 5′-AGGATCTCGTCGTGACCCATGGCGA-3′ (SEQ ID NO: 5), and 5′-GAGCGGCGATACCGTAAAGCACGAGG-3′ (SEQ ID NO: 6) where Ldlr^+/+ mice would yield 383 bp amplicon, while Ldlr^−/− 200 bp and […] amplicons, respectively.
# Twenty four (24) 8 week old Ldlr^−/−Apobec1^−/− mice were randomly assigned to either control group (normal rodent chow, Lab Diet, Richmond, Ind., N=12) or morelloflavone group (normal rodent chow supplemented with 0.003% (w/w) morelloflavone, N=12). The 0.003% (w/w) morelloflavone corresponds to approximately 4 mg/kg morelloflavone for 30 gram animals that consume 4 grams of chow. Animals were housed individually in an air-conditioned room with 12-h light/dark cycle with access to food and water. Body weight of these mice was monitored monthly. After 8 months, animals were sacrificed for analyses of atherosclerosis. Just prior to the sacrifice, blood was sampled from the heart and collected into micro-centrifuge tubes containing EDTA. The entire aortae were excised. All animal experimentation protocols were performed according to the protocol approved by the Institutional Animal Care and Use Committee (IACUC) of the University of Texas Health Science Center at Houston, in accordance with the National Institutes of Health guidelines.
# The aortae and hearts were excised en bloc. The extent and degree of atherosclerosis was quantified by both en-face analyses of atherosclerosis lesions and the intimal areas of the ascending aortae at the level of aortic valve leaflet. For en-face analysis of atherosclerotic areas, the distal portion of the ascending aortae, aortic arches, and descending aortae down to the liac bifurcations were pinned flat on a white wax surface, fixed with 10% (v/v) buffered formalin solution overnight, stained by freshly prepared and filtered Oil red O solution for 1 hr, rinsed twice with 78% methanol, mounted and dried on the glass slides, and scanned in the TIFF format using the ScanScope slide scanning system (Nikon, Melville, N.Y.). The planimetry of the entire surface areas and Oil red O-positive atherosclerotic lesion areas was performed on the scanned images using Sigma Scan Pro software (SPSS Science, Chicago, Ill.).
# For the cross sectional analyses of atherosclerosis, the roots of the ascending aortae were embedded in OCT compound (Tissue-Tek®, Sakura-Fineteck U.S.A., Torrance, Calif.). […] In both methods of atherosclerosis quantification, the images of aortae were digitally captured and stored in the TIFF format, using the ScanScope slide scanning system (Nikon, Melville, N.Y.). The quantification of the atherosclerotic area was performed by Image J software (NIH, Bethesda, Md.) and expressed at lesion areas (μm^2).
# [3] = molecular target: T1, Lp-PLA2 (Homo sapiens, UniProt Q13093); assay: PLA2 enzyme activity assay, Lp-PLA2; format: biochemical; conditions: recombinant human Lp-PLA2, data not shown
# T1 sequence (Q13093 22-441): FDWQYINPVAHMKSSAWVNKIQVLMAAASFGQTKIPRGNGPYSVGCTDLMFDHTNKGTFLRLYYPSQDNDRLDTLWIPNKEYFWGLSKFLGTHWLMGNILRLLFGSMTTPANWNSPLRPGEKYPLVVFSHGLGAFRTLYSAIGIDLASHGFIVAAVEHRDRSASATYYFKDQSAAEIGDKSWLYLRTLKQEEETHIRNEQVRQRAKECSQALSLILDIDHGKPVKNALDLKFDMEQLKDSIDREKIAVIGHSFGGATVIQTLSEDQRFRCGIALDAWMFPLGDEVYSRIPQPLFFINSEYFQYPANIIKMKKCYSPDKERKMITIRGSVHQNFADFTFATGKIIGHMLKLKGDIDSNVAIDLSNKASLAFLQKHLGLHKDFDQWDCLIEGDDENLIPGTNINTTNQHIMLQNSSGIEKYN
# Procedure: Recombinant human sPLA2 isoforms, Group IB, Group IIA, Group V, and Lp-PLA2 were obtained from R&D Systems and Cayman Chemical Co. sPLA2 enzyme activities in the presence of various concentrations of morelloflavone or other inhibitors were determined using a commercially available assay system according to the manufacturer's instructions (Cayman Chemical Co.). Thioetheramide-1-palmitylthio-2-palmitoylamido-1,2-dideoxy-sn-glycero-3-phosphorylcholine (T-PC) and methyl arachidonyl fluorophosphonate (MAFP) were used as inhibitors of sPLA2 (IB, IIA, and V) and Lp-PLA2, respectively, per manufacturers' instructions.
compound,measurement,setting,value
"O=C1c2c(O)cc(O)cc2O[C@H](c2ccc(O)cc2)[C@H]1c1c(O)cc(O)c2c(=O)cc(-c3ccc(O)c(O)c3)oc12 [morelloflavone, 5,7, 4′, 5″, 7″, 3″, 4″-heptahydroxy-[3,8″]-flavonylflavanone]",effect on BrdU labelling indices,[1],decreases BrdU labelling indices
same,effect on percentage of S-phase cells / DNA synthesis (BrdU),[1]; concentrations up to 10 mM,did not significantly affect DNA synthesis; also recorded: does not affect the percentage of S-phase cells; also recorded: does not affect cell cycle progression
same,"atherosclerotic surface area, en-face analysis","[2]; 0.003% (w/w) diet (0.03%), male Ldlr−/−Apobec1−/− mice",24.9±6.9 % of the total aortic surface area
same,"atherosclerotic lesion area, cross-sectional analysis at aortic valve",[2]; 0.003% diet,5.65±1.05 ×10^3 μm^2
same,reduction of cross-sectional lesion area vs control,[2]; 0.003% diet,26%
same,reduction of en-face atherosclerotic area vs control,[2]; 0.003% diet,26%
same,total area affected by atherosclerosis compared with control mice (en face),[2]; 0.003% morelloflavone-containing diet,substantially lower
same,inhibition of Lp-PLA2,[3],did not inhibit
